From paper PMC8424097, “Population Pharmacokinetics of Polymyxin B and Dosage Optimization in Renal Transplant Patients” (Frontiers in Pharmacology, 2021)
Positions of bridges follow the written chain, without caps; N, C: chain ends. Non-standard residues stand in square brackets, D forms with d. Residues, ends and D or L forms follow the SMILES beside them. *: point of attachment. X1 = CC[C@H](C)CCCCC(=O)*; Dab = NCC[C@H](N)C(=O)O

Columns and labels:
[1] = Population pharmacokinetic analysis of polymyxin B in renal transplant patients (plasma, HPLC-MS/MS, Phoenix NLME); type: in vivo, human
Procedure: This prospective study was approved by the Ethics Committee of the Second Xiangya Hospital, Central South University. Informed consent was obtained from all patients or legal representatives of the patients (No. ChiCTR1900022231). Renal transplant patients (aged ≥18 years) who received intravenous polymyxin B (sulfate; Polymyxin B for Injection, China, SPH NO.1 BIOCHEMICAL and PHARMACEUTICAL CO. LTA) for ≥48 h were enrolled. Patients were excluded if they were pregnant, allergic or intolerant to polymyxin B and lacked the necessary data (weight or some renal function index).
All patients accepted at least 3 days of polymyxin B infusion, and the administration interval of polymyxin B was 12 h with an infusion duration of 60–120 min. One to six blood samples (2 mL) were randomly collected 30 min before the sixth dose of polymyxin B and at 0, 0.5, 1, 2, 4, 6, and 8 h after the end of infusion. Blood samples were centrifuged for 10 min (3,400 rpm/min), and the supernatant was immediately stored at −80°C until analysis. A validated high-performance liquid chromatography-tandem mass spectrometry (HPLC-MS/MS) was used to measure the concentrations of polymyxin B1 and polymyxin B2 ([Thomas et al., 2012]). Briefly, a Shim-pack GIST C18 (2.1*100 mm, 3 μm, Shimadzu) column was used. Gradient chromatography was performed with solvent A (0.1% formic acid in water) and solvent B (acetonitrile). The following gradient elution was performed at a total flow of 0.6 ml/min for analyte elution: 10–60% B from 0 to 5 min, 60%–90% B from five to 5.10 min, 90% from 5.10 to 6 min, 90%–10% B from six to 6.10 min, and 10% B from 6.10 to 10.0 min. The elution time was 10 min, and the injection volume was 2 μL. The interday precision was <12%, the intraday precision was <9%, and the accuracy ranged from 96.1 to 110.4%. The limit of quantification was 0.03 mg/L.
(§1) The following data were collected: age; sex; weight; maintenance doses; time and route of administration; site of infection; microbes; comorbidities; liver function indexes, such as alanine aminotransferase (ALT), aspartate aminotransferase (AST), total bilirubin (TBIL), direct bilirubin (DBIL), and albumin (ALB); and renal function indexes, such as uric acid (UA), blood urea nitrogen (BUN), and CrCL. CrCL was calculated according to the Cockcroft-Gault equation ([Janmahasatian et al., 2005]). CrCL ≤80 ml/min was defined as renal dysfunction, and when the basic CrCL decreased by more than 25%, nephrotoxicity was defined. Risk, injury, failure, loss and end-stage renal disease criteria were used to define acute kidney injury (AKI) in patients ([Bellomo et al., 2004]). Neurotoxicity was defined when any neurological symptoms or signs occurred during polymyxin B treatment, including dizziness, vertigo, visual disturbances, confusion, hallucinations, ataxia, seizures, and facial and peripheral paresthesia. The observed AUC0–24h of patients was calculated by daily dose/CL.
The concentration-time data of polymyxin B were analyzed with a nonlinear mixed effect modeling approach with the Phoenix NLME program (version 8.1. Pharsight, A Certara Company, United States of America). The first-order conditional estimation-extended least square method (FOCE-ELS) was used to develop the PPK model. One- and two-compartment models with linear elimination were evaluated for structure model selection based on the objective function value (OFV) and Akaike information criterion (AIC). The interindividual variability of PK parameters was described by an exponential error model. Residual variability was selected with an additive error model, proportional error model and combined error model. The covariates considered for the modeling included age, weight, ALT, AST, TBIL, DBIL, ALB, BUN, UA, and CrCL. The median of the covariate was used to normalize the covariate, and a stepwise method was used to screen the covariates. […]

[2] = Adverse effects (nephrotoxicity, neurotoxicity, skin) during polymyxin B treatment of renal transplant patients; type: in vivo, human
Procedure: as §1

[3] = cited from earlier work
Procedure: According to the results from previous pharmacokinetics and pharmacodynamics (PK/PD) studies, the bactericidal activity of polymyxin B is best correlated with the area under the concentration-time curve over 24 h in steady state divided by the minimum inhibitory concentration (AUC0–24h/MIC) ([Mohamed et al., 2012]). Moreover, the latest guidelines recommended a target plasma AUC0–24h of 50–100 mg⋅h/L to achieve bactericidal activity against an isolate with an MIC of 2 mg/L (the EUCAST and CLSI breakpoints) ([Tsuji et al., 2019]). However, due to the lack of rigorous PK data, the optimal dosing ... || Monte Carlo simulations (n = 1,000) were conducted using metrics to determine the PTA for fAUC0–24h/MIC ≥20 at various MICs (0.5–2 mg/L) in patients with different renal functions (CrCL: 10–80 ml/min), where f is the unbound fraction of polymyxin B (assumed to be 0.42) ([Sandri et al., 2013b]). The dosages were selected according to the most commonly used regimens in renal transplant patients. The regimens were as follows with a 2 h infusion: a single 50 mg loading dose followed by either 30 mg every 12 h or 40 mg every 12 h, either a loading dose of 75 mg or 100 mg followed by 50 mg every 12 ... || In the present study, a one-compartment model was used to describe the original data, which was consistent with some of the previous studies ([Kubin et al., 2018]; [Manchandani et al., 2018]). […] This difference might be mainly due to impaired renal function in the renal transplant patients in this study (CrCL: 20.89 ml/min, range: 4.29–78.84 ml/min) because we identified CrCL as a significant predic ... || (+ 1 further places)

[4] = rats, 6 h after dosing; ref Manchandani et al., 2015; cited from earlier work
Procedure: Polymyxin B is mainly distributed in the kidney, and the renal tissue/serum concentration ratio of polymyxin B was 19.62 at 6 h after dosing in rats ([Manchandani et al., 2015]). Therefore, the variation in polymyxin B accumulation in the kidney might be responsible for the differences in the apparent volume of distribution. In addition t ...

[5] = cited from earlier work; remark: listed apart in the source
Description: It is well known that nephrotoxicity is the major adverse effect of polymyxin B, with a wide range from 26.9 to 60% ([Plachouras et al., 2009]; [Akajagbor et al., 2013]; [Dubrovskaya et al., 2015]; [Rigatto et al., 2015]). In the present study, however, the incidence of AKI was extremely low, with only five patients showing nephrotoxicity. As polymyxin B-induced nephrotoxicity is a dose-limiting adverse effect, our result seemed to be consistent with the previous finding that patients with renal impairment might have a lower incidence of AKI due to the decreased percentage of tubular reabsorpt ... || The incidence of neurotoxicity was much higher than noted before (62.0 vs 7%) and has become the dose-limiting factor in our study ([Arnold et al., 2007]). […] Considering their similar structures, this mechanism might also fit polymyxin B; therefore, the higher exposure of p ...

[6] = of 50 renal transplant patients
[7] = patients of previous studies, ref Kubin et al., 2018, Manchandani et al.

CC[C@H](C)CCCCC(=O)N[C@@H](CCN)C(=O)N[C@H](C(=O)N[C@@H](CCN)C(=O)N[C@H]1CCNC(=O)[C@H]([C@@H](C)O)NC(=O)[C@H](CCN)NC(=O)[C@H](CCN)NC(=O)[C@H](CC(C)C)NC(=O)[C@@H](Cc2ccccc2)NC(=O)[C@H](CCN)NC1=O)[C@@H](C)O [polymyxin B] (X1-[Dab]T[Dab][Dab][Dab][dF]L[Dab][Dab]T; lactam 4-C)
CL, bootstrap median ([1]; bootstrap, 1000 resamples): 1.17 L/h | V, bootstrap median ([1]; bootstrap, 1000 resamples): 11.98 L | Θ CrCL, bootstrap median ([1]; bootstrap, 1000 resamples): 0.14 | mean AUC0–24h (observed) ([1]; calculated by daily dose/CL, mean ± SD, SD): 74.60 ± 17.81 mg·h/L | Θ CrCL (exponent for CrCL as a covariate for CL), final model estimate ([1]; final PPK model): 0.14 | Vd ([1]; human, intravenous q 12 h, one-compartment PPK model, 151 plasma samples from 50 patients, HPLC-MS/MS, read-out: V, final model estimate): 12.1 L | clearance ([1]; human, intravenous q 12 h, one-compartment PPK model, typical value at CrCL 22.2 ml/min, 151 plasma samples from 50 patients, read-out: CL, final model estimate (converted)): 19.7 mL/min | incidence of dermatitis ([2]; 50 renal transplant patients): 34.0% | incidence of neurotoxicity ([2]; 50 renal transplant patients): 62.0% | nephrotoxicity classified as injury (RIFLE) [2, 6]: one | nephrotoxicity classified as risk (RIFLE) [2, 6]: four | patients with dermatitis [2, 6]: Seventeen | patients with dizziness [2, 6]: three | patients with facial and peripheral paresthesia [2, 6]: 29 patients | patients with nephrotoxicity (basic CrCL decreased by more than 25%) [2, 6]: five | patients with neurotoxicity of different degrees [2, 6]: 31 patients | patients with seizures [2, 6]: three | patients with pigmentation ([2]; of 50 renal transplant patients, all disappeared 1 month after withdrawal): Seven | days printed for the nephrotoxicity case classified as injury ([2]; renal transplant patients): 11 days | days printed for the nephrotoxicity cases (all five) ([2]; renal transplant patients): 3 to 11 days | days printed for the nephrotoxicity cases classified as risk ([2]; renal transplant patients): 3 to 7 days | CL reported in previous one-compartment models [3, 7]: 2.37 to 2.5 L/h | V reported by previous studies [3, 7]: 34.3 to 34.4 L | urinary recovery (range between patients) ([3]; previous study in patients, ref Sandri et al., 2013b): 0.98–17.4% | patients achieving the AUC0–24h target at the recommended dosage ([3]; ref Lakota et al., 2018): 71% | unbound fraction f (assumed) ([3]; used for fAUC0–24h/MIC in the simulations, ref Sandri et al., 2013b): 0.42 | renal tissue/serum concentration ratio [4]: 19.62 | incidence of neurotoxicity noted before ([5]; ref Arnold et al., 2007): 7% | incidence of nephrotoxicity (range of previous reports) ([5]; ref Plachouras et al., 2009, Akajagbor et al., 2013, Dubrovskaya et al., 2015, Rigatto et al., 2015): 26.9 to 60%
